Test results as given in the SangsterLogP compilation.

Assay: method code SF-GLC, from DOI: 10.1016/s0045-6535(99)00157-5

Row | SMILES | logP
1 | ClCC1(CCl)C(=C(Cl)Cl)C2CC1C(Cl)(Cl)C2Cl (stereo not drawn) | 5.44
2 | CC1(CCl)C2CC(Cl)(Cl)C1(C(Cl)Cl)CC2Cl (stereo not drawn) | 5.49
3 | CC1(C(Cl)Cl)C2C(Cl)C(Cl)C1(C(Cl)Cl)C(Cl)C2Cl (stereo not drawn) | 5.52
4 | ClCC1(C(Cl)Cl)C2CC(Cl)(Cl)C1(C(Cl)Cl)CC2(Cl)Cl (stereo not drawn) | 5.96
5 | ClC[C@@]1(C(Cl)Cl)C2[C@@H](Cl)[C@H](Cl)C1(C(Cl)Cl)[C@@H](Cl)[C@@H]2Cl | 5.89
6 | ClCC1(C(Cl)Cl)C2CC(Cl)C1(C(Cl)Cl)CC2(Cl)Cl (stereo not drawn) | 5.75
7 | ClCC1(C(Cl)Cl)C(=C(Cl)Cl)C2CC1C(Cl)(Cl)C2Cl (stereo not drawn) | 5.49
8 | ClCC12CCC(C(Cl)C1(Cl)Cl)C2(C(Cl)Cl)C(Cl)Cl (stereo not drawn) | 5.49
9 | ClC[C@@]1(C(Cl)Cl)[C@@H]2CC(Cl)(Cl)[C@@]1(C(Cl)Cl)[C@H](Cl)C2(Cl)Cl | 6.64
10 | ClC=C1C2CC(C1(CCl)CCl)C(Cl)(Cl)C2Cl (stereo not drawn) | 5.2
11 | C[C@]1(C(Cl)Cl)[C@H]2CC(Cl)(Cl)[C@]1(C(Cl)Cl)CC2(Cl)Cl | 5.9
12 | ClC=C1C2C(Cl)C(Cl)C(C2Cl)C1(CCl)CCl (stereo not drawn) | 5.35
13 | ClCC1(C(Cl)Cl)C2C(Cl)CC1(C(Cl)Cl)C(Cl)C2Cl (stereo not drawn) | 5.19

The remaining lines, values ahead:

Row | logP | SMILES
14 | 5.57 | ClCC1(CCl)C2[C@@H](Cl)[C@H](Cl)C1(C(Cl)Cl)[C@@H](Cl)[C@@H]2Cl
15 | 5.74 | ClCC1(CCl)C2C(Cl)C(Cl)C1(CCl)C(Cl)(Cl)C2Cl (stereo not drawn)
16 | 6.26 | ClCC1(CCl)C2C(Cl)C(Cl)(Cl)C1(C(Cl)Cl)CC2(Cl)Cl (stereo not drawn)
17 | 5.8 | ClCC1(C(Cl)Cl)C2CC(Cl)(Cl)C1(C(Cl)Cl)C(Cl)C2Cl (stereo not drawn)
18 | 5.23 | ClCC1(CCl)[C@H]2CC(Cl)(Cl)[C@]1(CCl)[C@@H](Cl)[C@@H]2Cl
